According to publication PMC11510805, “In Vivo Effects of a GHR Synthesis Inhibitor During Prolonged Treatment in Dogs” (Pharmaceuticals, 2024):

Key:
[1] = target: CYP2C19 (Homo sapiens, UniProt P33261); details: human liver microsomes
[2] = target: T1, CYP2C8 (Homo sapiens, UniProt P10632); details: human liver microsomes
T1 sequence (P10632 1-490): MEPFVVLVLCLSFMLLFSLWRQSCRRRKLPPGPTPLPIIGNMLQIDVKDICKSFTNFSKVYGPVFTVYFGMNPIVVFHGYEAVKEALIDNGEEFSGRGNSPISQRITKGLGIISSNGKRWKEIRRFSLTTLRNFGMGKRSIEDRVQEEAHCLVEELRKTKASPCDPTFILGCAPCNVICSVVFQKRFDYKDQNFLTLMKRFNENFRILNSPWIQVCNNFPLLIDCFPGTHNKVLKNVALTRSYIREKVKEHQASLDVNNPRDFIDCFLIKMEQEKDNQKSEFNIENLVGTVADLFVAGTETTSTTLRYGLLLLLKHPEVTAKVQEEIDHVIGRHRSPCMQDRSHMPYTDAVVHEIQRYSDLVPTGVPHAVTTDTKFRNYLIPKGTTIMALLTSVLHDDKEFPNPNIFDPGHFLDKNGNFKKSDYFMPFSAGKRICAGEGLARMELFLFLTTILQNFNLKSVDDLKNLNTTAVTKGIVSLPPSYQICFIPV
Excerpt: For in vitro experiments, a stock solution of C#1 in DMSO was chosen.

Chain of CYP2C19 (P33261 whole entry): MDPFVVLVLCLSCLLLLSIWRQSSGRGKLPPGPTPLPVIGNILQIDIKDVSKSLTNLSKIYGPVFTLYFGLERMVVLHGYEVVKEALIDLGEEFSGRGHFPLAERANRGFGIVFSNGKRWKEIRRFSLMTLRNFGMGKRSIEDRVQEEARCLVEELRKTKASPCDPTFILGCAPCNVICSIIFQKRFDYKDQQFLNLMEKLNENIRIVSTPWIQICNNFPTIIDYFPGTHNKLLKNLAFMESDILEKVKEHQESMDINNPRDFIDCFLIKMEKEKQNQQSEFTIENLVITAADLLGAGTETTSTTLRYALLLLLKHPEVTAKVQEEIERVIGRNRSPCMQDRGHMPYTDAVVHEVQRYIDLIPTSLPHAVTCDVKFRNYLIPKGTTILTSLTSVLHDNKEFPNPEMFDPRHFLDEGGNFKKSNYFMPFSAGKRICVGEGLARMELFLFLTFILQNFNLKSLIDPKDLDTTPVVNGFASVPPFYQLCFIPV

| SMILES | CYP2C19 Imax of reference inhibitor [1] [%] | CYP2C8 Imax of reference inhibitor [2] [%] |
| --- | --- | --- |
| C=C(C)[C@@H]1CCC2=CC(=O)C[C@@H](C)[C@]2(C)C1 [Nootkatone] | 87 |  |
| O=c1c(O)c(-c2ccc(O)c(O)c2)oc2cc(O)cc(O)c12 [Quercetin] |  | 88 |
